Values joined by “and” are separate entries in the source; they are usually repeats but may differ in a detail not shown here. Equal entries are not always repeated.
What was measured:
right femoral fracture = assay: Rat femoral transverse fracture model; assay type: in vivo, Male Sprague-Dawley rats; conditions: single percutaneous injection to fracture site immediately after surgery; 50 mg/ml, 300 ul, 15 mg/rat; day 21
Protocol: Male Sprague-Dawley rats at 3 to 4 months of age were used. The animals were anesthetized with ketamine and xylazine at doses of 100 and 10 mg/kg, respectively. The right hindlimb of each rat was shaved and cleaned. A 1 cm incision was made just lateral to the patella and the femoral condyle was exposed. A Kirschner wire (0.045″ in diameter) was introduced into the intramedullary canal through the intercondylar portion to serve as an internal stabilization. The muscle incision was closed with Vicryl® and the skin incision was closed with stainless steel wound clips. The mid-diaphysis of the pinned femur was fractured by means of a three-point bending device driven by a dropped weight. The rats were permitted full weight-bearing and unrestricted activity after awakening from anesthesia. The test agents were administered on various days after surgery by percutaneous injection onto the fracture site. The animals were sacrificed on various days after treatment and the femurs were collected for analysis. Fracture healing was evaluated by using radiography, histomorphometry and biomechanical test. (See, e.g., F. Bonnarens and T. A. Einhorn, “Production of a standard closed fracture in laboratory animal bone,” Journal of Orthopaedic Research 2:97-101 (1984).)
Male Sprague-Dawley rats at 3 to 4 months of age were subjected to right femoral fracture. […]

[1] = tested on: subperiosteum of the femur; assay: Rat periosteal injection model; assay type: in vivo, Male Sprague-Dawley rats; conditions: single injection in a polymer formulation, day 15
Protocol: Male Sprague-Dawley rats at 3 weeks of age were used. The rats were anesthetized with isoflurane inhalation ([…]) in a conduction chamber located in a fume hood. The right hindlimb of each rat was shaved and cleaned. A 25 G needle attached with a Hamilton syringe pre-filled with testing solution was used for the local injection. The solution was injected onto the subperiosteum of the anterior, mid-diaphyseal region of femur in a volume of 5 to 10 ul for various days. On day 15, the rats were sacrificed and the femurs were collected for analysis. (See, e.g., M. E. Joyce, A. B. Roberts, M. B. Sporn and M. Bolander, “Transforming growth factor-β and the initiation of chondrogenesis and osteogenesis in the rat femur,” The Journal of Cell Biology 110:2195-2207 (1990).) On day one, the right femurs of male Sprague-Dawley rats received single injection of vehicle or test compound in a polymer formulation. The test compound was the sodium salt of (3-(((4-tert-butyl-benzyl)-(pyridine-3-sulfonyl)-amino)-methyl)-phenoxy)-acetic acid. On day 15, all rats were sacrificed and the right femurs were collected for analysis. Periosteal bone induction was assessed by using radiography and dual-energy X-ray absorptiometry (DEXA).

[2] = tested on: 1.5 cm segmental defect in the midulna; assay: Dog ulnar segmental defect model; assay type: in vivo, dogs
Excerpt: The ulnar segmental defect model was used to test the efficacy of a single dose of the test compound (which was the sodium salt of (3-(((4-tert-butyl-benzyl)-(pyridine-3-sulfonyl)-amino)-methyl)-phenoxy)-acetic acid) in a PLGH formulation ([…]). The protocol was modified as follows: With animals under general anesthesia, the foreleg was prepped and draped in sterile fashion. A lateral incision approximately 10 cm in length was made and the ulna was exposed extraperiostally. Periosteum was cut and moved to the proximal and distal parts of the incision. Then a 1.5 cm segmental defect was made in the midulna using a pendular saw. The radius and the remaining interosseal membrane were left intact. The defect site was irrigated with saline to remove bone debris. The site was then filled with test compound in a slow-release matrix formulation, as described above. The dogs were divided into the following groups.
Radiographs of the forelimbs were obtained immediately following surgery and every two weeks thereafter until the termination of the study. Radiographs were graded on a 0 to 6 scale (Table 2).

[3] = tested on: osteotomy on the distal portion of the dog tibia; assay: Canine tibial osteotomy model; assay type: in vivo, Beagle male dogs; conditions: RG502H/NMP, 8 weeks, sodium salt
Excerpt: Normal fracture healing usually represents a biologically optimum healing process, as a result detecting an acceleration of healing in pre-clinical models that heal rapidly is both difficult and challenging. The test compound (which was the sodium salt of (3-(((4-tert-butyl-benzyl)-(pyridine-3-sulfonyl)-amino)-methyl)-phenoxy)-acetic acid) in a PLGH formulation (50% 50:50 PLGH (RG502H Grade)/50% NMP) was studied to determine its effect on accelerating healing in a rapidly healing canine osteotomy model. Enhancement of healing in this model supports potential applications of the test compound to heal normal fractures in humans since humans tend to heal fractures more slowly.
Beagle male dogs 12±3 kg, 14 months of age were used for the study. Dogs were divided into four groups of three to four animals each.
With animals under general anesthesia, the hindleg was prepped and draped in sterile fashion. A lateral incision approximately 4 cm in length was made. Surgical osteotomy was made on the distal portion of the dog tibia using a Gigli saw. The defect was stabilized using an AO plate. The fibula and the remaining interosseal membrane was left intact and the defect site was irrigated with saline to remove bone debris. The site was then filled with carrier as described above. Following surgery, animals were allowed full weight-bearing activity, and water and food ad libitum. […]

How did the “calluses as assessed by radiography vs vehicle” value (right femoral fracture) turn out when `CC(C)(C)c1ccc(CN(Cc2cccc(OCC(=O)[O-])c2)S(=O)(=O)c2cccnc2)cc1.[Na+]` [test compound, (3-(((4-tert-butyl-benzyl)-(pyridine-3-sulfonyl)-amino)-methyl)-phenoxy)-acetic acid, sodium salt] was run?
Its value is “larger and denser calluses”.

What about the “bone mineral content (BMC) of the injected region of the femur by DEXA vs vehicle” value [1] of the same compound?
Its value is “significantly increased”.

And the “periosteal bone induction by radiography” value ([1]; anterior aspect of right femur)?
Its value is “new bone formation”.

What about the “efficacy in formulation containing RG503H Grade” value ([2]; 50 mg/ml in 50% 50:50 PLGH (RG503H Grade)/50% NMP) of the same compound?
Its value is “did not work well”.

What about the “union compared to RG502H Grade formulation” value ([2]; 50 mg/ml in 50% 50:50 PLGH (RG503H Grade)/50% NMP, union achieved in some dogs) of the same compound?
The value was “delayed”.

And the “treated animals healed, overall” value ([2]; all treated groups vs none for vehicle controls)?
Its value is 70-75%.

And the “remodeling of newly formed bone” value ([2]; by week 24, slow release matrix formulation RG502H/NMP)?
Its value is “remodeled back to the same shape and size as the contralateral bone”.

What about the “Complete rebridging/number of dogs” value ([2]; group B: 50 mg (1 ml of 50 mg/ml formulation), RG502H/NMP) of the same compound?
Its value is 2/4.

What about the “Complete rebridging/number of dogs” value ([2]; group C: 10 mg (1 ml of 10 mg/ml formulation), RG502H/NMP) of the same compound?
Its value is 9/12.

What about the Radiographic response ([2]; group C: 10 mg (1 ml of 10 mg/ml formulation), RG502H/NMP, two dogs) of the same compound?
Its Radiographic response is “did not respond”.

And the “Complete rebridging/number of dogs” value ([2]; group D: 10 mg (0.2 ml of 50 mg/ml formulation), RG502H/NMP)?
Its value is 3/4.

And the “rebridgement of defect after a single application” value ([2]; groups B, C and D, slow release matrix formulation RG502H/NMP)?
The value was “complete rebridgement”.

And the Rebridging/number of dogs ([3]; group C: 5 mg (0.5 ml of 10 mg/ml formulation))?
The Rebridging/number of dogs was “Four out of four and 4/4”.

What about the Rebridging/number of dogs ([3]; group D: 25 mg (0.5 ml of 50 mg/ml formulation)) of the same compound?
The Rebridging/number of dogs was “the other three showed significant healing and 3/4”.
